From patent US20220403327A1, “CUSTOMIZABLE 3D CELL CULTURE SYSTEM COMPRISING HYDROGEL-EMBEDDED CELLS AND USES THEREOF” (POLYVALOR, LIMITED PARTNERSHIP, priority 2019, published 2022)

Legend:
Assay type in all cases: cell-based
breast cancer cells = experiment: Drug screening test: tumor migration on plasma-treated PLA electrospun mat 3D cell culture model; details: 0, 0.05, 0.1, 0.5, 1 and 2 μM in media; day 7 of cell culture; A1G7 hydrogel on fibroblast-seeded PLA mats; triplicate
Experimental: FIG. 11B is a graph showing the measurement of the number of tumor cells migrated to the surface of PLA mats at different concentrations (0, 0.05, 0.1, 0.5, 1 or 2 μM) of Doxorubicin. Experiments were performed in triplicate and the error bars in the graph show the standard deviation.
(§1) A drug screening setup was designed using the known anti-tumor drug Doxorubicin to assess tumor migration performance on the 3D cell culture model of the present disclosure. The plasma-treated PLA electrospun mats seeded with fibroblasts and tumor cells on A1G7 hydrogel on top, were loaded with various concentrations of Doxorubicin (0, 0.05, 0.1, 0.5, 1 and 2 μM) in triplicate, and tumor migration assessment was performed at day 7 of cell culture. […] The experiment was done in triplicate and the error bars presented in the chart are based on standard deviation.

[1] = system: bone metastases prostate (BMP4) patient-derived tumor cells; experiment: Drug screening test: tumor migration on PP-EL plasma-coated PLA electrospun mats with patient-derived tumor cells; details: 0, 0.05, 0.1 and 0.5 μM, day 7 of cell culture, A1G7 hydrogel, triplicate
Experimental: FIG. 12C is a graph showing the measurement of the number of BMP4 tumor cells migrated to the surface of PP-EL plasma-treated PLA mats at different concentrations (0, 0.05, 0.1, or 0.5 μM) of Doxorubicin. Experiments were performed in triplicate and the error bars in the graph show the standard deviation.
The 3D cell culture system according to the present disclosure was also used to perform a doxorubicin screening tested with tumor cells derived from patients (bone metastases prostate (BMP4) patient-derived tumor cells) and a breast tumor cell line (MBA-MB231) in A1G7 hydrogel. In this experiment, the PLA scaffolds were coated with PP-EL, ethyl lactate (EL) plasma coating in atmospheric pressure, and captured at day 7 after culture. The results depicted in FIG. 12A indicate a significant difference in the appearance of primary BMP4 tumor cells and commercial tumor cell line in the images. The pictures show the 3D stack of the total mat layers (certain thickness) obtained by signal from cells.
The PP-EL plasma-coated PLA electrospun mats seeded with BMP4 tumor cells on A1G7 hydrogel on top, were loaded with various concentrations of Doxorubicin (0, 0.05, 0.1 and 0.5 μM) in triplicate, and tumor migration assessment was performed at day 7 of cell culture.

fibroblasts = experiment: Drug screening test: stromal cells on nanofibrous PLA scaffolds of the 3D cell culture model; details: 0-2 μM; day 7; relative to samples from previous experiment without drug
Experimental: as §1, with “A1G7” left out

With `COc1cccc2c1C(=O)c1c(O)c3c(c(O)c1C2=O)C[C@@](O)(C(=O)CO)C[C@@H]3O[C@H]1C[C@H](N)[C@H](O)[C@H](C)O1` [Doxorubicin] the “number of breast cancer cells that were able to migrate to the surface of scaffolds” value (breast cancer cells) was “significant reduction”, the “BMP4 tumor cells migration” value [1] was “dose-dependent inhibition” and the “number of stromal cells (fibroblasts) on nanofibrous scaffolds” value (fibroblasts) was “reduced number of stromal cells”.
